Assay results from patent publication US20220023306A1, “USE OF A PPAR-DELTA AGONIST IN THE TREATMENT OF FATTY ACID OXIDATION DISORDERS (FAOD)” (Reneo Pharmaceuticals, Inc., priority 2019, published 2022).

Assays:
hPPARδ = target: T1, hPPARδ (Homo sapiens, UniProt Q03181); assay: PPAR transient transactivation assay, hPPARδ; assay type: cell-based
T1 construct: is generated by PCR (PPARδ: aa 128-C-terminus); expressed in transfected cells; host or cells: HEK293
T1 sequence (Q03181 128-441 limits assumed): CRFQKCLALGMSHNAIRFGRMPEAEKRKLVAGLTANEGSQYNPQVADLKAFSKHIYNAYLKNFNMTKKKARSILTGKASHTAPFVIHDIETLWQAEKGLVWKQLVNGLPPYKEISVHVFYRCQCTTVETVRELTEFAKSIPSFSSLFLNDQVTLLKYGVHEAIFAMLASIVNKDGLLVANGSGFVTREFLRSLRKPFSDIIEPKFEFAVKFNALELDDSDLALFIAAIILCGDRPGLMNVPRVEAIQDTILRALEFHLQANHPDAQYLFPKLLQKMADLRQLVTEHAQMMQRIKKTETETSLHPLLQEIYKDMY
Procedure: “Activation” herein is defined as the abovementioned downstream response, which in the case of PPAR's is gene transcription. Gene transcription, in some cases, is measured indirectly as downstream production of proteins reflective of the activation of the particular PPAR subtype under study. Alternatively, an artificial reporter construct, in some cases, is employed to study the activation of the individual PPAR's expressed in cells. The ligand binding domain of the particular receptor to be studied, in some embodiments, is fused to the DNA binding domain of a transcription factor, which produces convenient laboratory readouts, such as the yeast GAL4 transcription factor DNA binding domain. The fusion protein, in some cases, is transfected into a laboratory cell line along with a Gal4 enhancer, which effects the expression of the luciferase protein. When such a system is transfected into a laboratory cell line, binding of a receptor agonist to the fusion protein will result in light emission.
The PPAR transient transactivation assay, in some cases, is based on transient transfection into human HEK293 cells of two plasmids encoding a chimeric test protein and a reporter protein respectively. The chimeric test protein, in some cases, is a fusion of the DNA binding domain (DBD) from the yeast GAL4 transcription factor to the ligand binding domain (LBD) of the human PPAR proteins. The PPAR-LBD moiety harbored in addition to the ligand binding pocket also has the native activation domain, allowing the fusion protein to function as a PPAR ligand dependent transcription factor. The GAL4 DBD will direct the chimeric protein to bind only to Gal4 enhancers (of which none existed in HEK293 cells). The reporter plasmid contained a Gal4 enhancer driving the expression of the firefly luciferase protein. After transfection, HEK293 cells expressed the GAL4-DBD-PPAR-LBD fusion protein. […] The amount of luciferase protein is measured by light emission after addition of the appropriate substrate. […]

FXR = target: T2, FXR (Homo sapiens, UniProt Q96RI1); assay: activity on nuclear receptor FXR; assay type: cell-based
T2 sequence (Q96RI1 1-486): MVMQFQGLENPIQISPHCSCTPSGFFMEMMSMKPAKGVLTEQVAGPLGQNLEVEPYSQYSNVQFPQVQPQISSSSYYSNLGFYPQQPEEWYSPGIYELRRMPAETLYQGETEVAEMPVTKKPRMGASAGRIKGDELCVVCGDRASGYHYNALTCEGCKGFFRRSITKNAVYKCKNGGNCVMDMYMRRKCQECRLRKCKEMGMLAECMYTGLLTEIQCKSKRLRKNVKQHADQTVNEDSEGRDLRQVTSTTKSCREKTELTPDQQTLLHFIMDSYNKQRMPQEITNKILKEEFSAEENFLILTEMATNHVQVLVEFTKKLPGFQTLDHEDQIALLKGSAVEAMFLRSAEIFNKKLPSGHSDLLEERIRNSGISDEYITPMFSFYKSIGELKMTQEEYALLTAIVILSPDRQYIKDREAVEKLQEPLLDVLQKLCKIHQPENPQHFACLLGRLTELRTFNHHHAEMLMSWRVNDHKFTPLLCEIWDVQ

type of agonism on PPARδ (hPPARδ): full agonist
selectivity for PPARδ over PPARα (hPPARδ; PPARδ over PPARα, human PPAR subtypes in vitro): at least 100 fold
selectivity for PPARδ over PPARγ (hPPARδ; PPARδ over PPARγ, human PPAR subtypes in vitro): at least 400 fold
activity on FXR (FXR): did not show any
SMILES: Cc1cc(OC/C=C(/c2ccc(F)cc2)c2ccc(C#CCN3CCOCC3)cc2)ccc1OCC(=O)O [Compound 1, (E)-[4-[3-(4-Fluorophenyl)-3-[4-[3-(morpholin-4-yl)propynyl]phenyl]allyloxy]-2-methyl-phenoxy]acetic acid]
